Measured values published in PMC10227015, “From a drug repositioning to a structure-based drug design approach to tackle acute lymphoblastic leukemia” (Nature Communications, 2023).
Where two headings read alike, the source gives them in different places.

Experiments:
dCK-C3S-S74E [1] = test: Enzymatic assay (PK/LDH coupled), dC phosphorylation by dCK in the presence of UTP; assay type: biochemical, human; settings: presence of UTP
Method: (§1) For enzymatic assays, cells were re-suspended in 20 mM TRIS, pH 8 500 mM NaCl, 0.1% BRIJ-35 and 5% glycerol buffer and one EDTA free anti-protease tablet was added (Roche). After sonication and centrifugation (30,000 × g), the supernatant was loaded on a 5 ml HisTrap FF column (GE healthcare) pre-equilibrated with 20 mM TRIS, pH 8, 500 mM NaCl, 0.01% BRIJ-35 and 5% glycerol buffer. The protein was then eluted by the same buffer containing 250 mM imidazole after a wash containing 25 mM imidazole. The eluted fraction was applied on a HiPrep 26/10 desalting column (GE healthcare) pre-equilibrated with 20 mM TRIS, pH 8, 500 mM NaCl, 5% glycerol and 0.01% BRIJ-35 buffer. Finally, protein in a 20% glycerol buffer was flash frozen in liquid nitrogen and stored at −80 °C.
Kinetic analyses were performed using a spectrophotometric continuous enzymatic-coupled assay using pyruvate kinase (PK) and lactate dehydrogenase (LDH). […] UTP is the physiological dCK-phosphate donor[46] and it was used to determine activation versus inhibition behavior. ATP was used to calculate IC50 values, as it allows the analysis of a dose response curve. The PK/LDH coupled assay is based on the conversion of phosphoenolpyruvate (PEP) and UDP/ADP to pyruvate and UTP/ATP by PK and the subsequent conversion of pyruvate to lactate by LDH. The latter step requires NADH, which is oxidized to NAD^+. NADH is fluorescent (excitation at 337 nm and emission at 460 nm), but not NAD^+. Thus, the measurement of fluorescent decrease at 460 nm is a measure of kinase activity. dCK experiments were performed in a buffer containing 50 mM HEPES, pH 7.5, 5 mM MgCl2, 1 mM DTT, and 100 mM KCl. Buffer was supplemented with PK (0.01 U/µl), LDH (0.02 U/µl), PEP (1 mM), NADH (300 µM) and compounds at varying concentrations. For UTP assays, protein concentration was 2 μM, substrate 200 µM (dC), and UTP 1 mM. For ATP assays, protein concentration was 100 nM (and 50 nM when indicated), substrate 100 µM (dC), and ATP 1 mM. All measurements were performed on a microplate reader Pherastar FS (BMG Labtech). All assays were performed in triplicate and each experiment was performed at least twice. The data are presented as mean ± SD. The results were plotted as kinetics and the velocity was determined for each condition as the slope of the linear range of the curve. For each compound concentration, the velocity of the reaction (according to V = d[P]/dt) was normalized with respect to the drug free control and velocity ratios were compared. IC50 values corresponding to enzymatic inhibition in ATP were calculated by nonlinear regression curves using GraphPad Prism software 9.4.0.

dCK-C3S-S74E [2] = test: Enzymatic assay (PK/LDH coupled), dC phosphorylation by dCK in the presence of ATP; assay type: biochemical, human; settings: presence of ATP, read-out: ENZYMATIC ASSAY IC50
Method: as §1
Kinetic analyses were performed using a spectrophotometric continuous enzymatic-coupled assay using pyruvate kinase (PK) and lactate dehydrogenase (LDH). Analysis of the effect of compounds on dCK-C3S-S74E activity was performed using dC as substrate and UTP/ATP as phosphate donors. UTP is the physiological dCK-phosphate donor[46] and it was used to determine activation versus inhibition behavior. ATP was used to calculate IC50 values, as it allows the analysis of a dose response curve. The PK/LDH coupled assay is based on the conversion of phosphoenolpyruvate (PEP) and UDP/ADP to pyruvate and UTP/ATP by PK and the subsequent conversion of pyruvate to lactate by LDH. The latter step requires NADH, which is oxidized to NAD^+. NADH is fluorescent (excitation at 337 nm and emission at 460 nm), but not NAD^+. Thus, the measurement of fluorescent decrease at 460 nm is a measure of kinase activity. dCK experiments were performed in a buffer containing 50 mM HEPES, pH 7.5, 5 mM MgCl2, 1 mM DTT, and 100 mM KCl. Buffer was supplemented with PK (0.01 U/µl), LDH (0.02 U/µl), PEP (1 mM), NADH (300 µM) and compounds at varying concentrations. For UTP assays, protein concentration was 2 μM, substrate 200 µM (dC), and UTP 1 mM. For ATP assays, protein concentration was 100 nM (and 50 nM when indicated), substrate 100 µM (dC), and ATP 1 mM. All measurements were performed on a microplate reader Pherastar FS (BMG Labtech). All assays were performed in triplicate and each experiment was performed at least twice. The data are presented as mean ± SD. The results were plotted as kinetics and the velocity was determined for each condition as the slope of the linear range of the curve. For each compound concentration, the velocity of the reaction (according to V = d[P]/dt) was normalized with respect to the drug free control and velocity ratios were compared. IC50 values corresponding to enzymatic inhibition in ATP were calculated by nonlinear regression curves using GraphPad Prism software 9.4.0.

CCRF-CEM cell line = test: dCK cellular assay: CCRF-CEM proliferation in the presence of dT and dC; assay type: cell-based, human; settings: Homo sapiens
Method: The dCK cellular assay was set up to assess the ability to inhibit dCK activity in a cellular model. The model was developed with a T-cell acute lymphoblastic leukemia cell line (CCRF-CEM), because of its high dependence on the SP, thus on dCK activity. Cellular assays were performed to assess the inhibition of cell proliferation under two conditions: (i) in the presence of the compound alone to determine the nonspecific effect on cells, independent of dCK (nonspecific toxicity) and (ii) in the presence of an inhibitor of the DNP to determine the ability of compounds to inhibit dCK and decrease tumor proliferation (activity on dCK). The inhibitor of the DNP chosen for the experiments was thymidine (dT), a physiological inhibitor of ribonucleotide reductase which arrests cell proliferation in phase S. The dTTP produced via thymidine kinase from dT acts as a RNR inhibitor by an allosteric regulation of the R1 subunit. The addition of the nucleoside deoxycytidine (dC) in the medium allows the rescue of cell proliferation by passing only through the salvage pathway, mediated by dCK. dC needs to be added exogenously to mimic physiological concentrations because it is not present in the cell culture medium, on the contrary to mouse model, in which it is naturally present in the serum. Therefore, cell proliferation under these conditions (+dT +dC) is dCK dependent and it is possible to determine the IC50 of dCK inhibitors on the inhibition of cell proliferation. Results are expressed as % cell proliferation relative to the control with DMSO.
The amount of reduced dye formed by metabolically active cells was quantified by its fluorescence measured at 560 nm (excitation) and 590 nm (emission) in a microplate reader (CLARIOstar, BMG Labtech). A blank well without cells was used as a background control. Each experiment was performed at least three times (with technical triplicates) and data are presented as the mean ± SD.

dCK-C3S-S74E [3] = test: Thermal shift assay (TSA); settings: for THERMAL SHIFT ASSAY +Tm (°): mean ± SD; for ΔTm (º) (TSA): Figure 2a, mean
[4] = read-out: dCK CELLULAR ASSAY IC50 (nM), CCRF-CEM, 200 µM dT and 1 µM dC, read-out: dCK […] ASSAY IC50
[5] = Figure 2a, CCRF-CEM cell line, mean, read-out: IC50 (nM) (Cell Prolif)

dCK-C3S-S74E, sequence (P27707 whole entry S74E, form open): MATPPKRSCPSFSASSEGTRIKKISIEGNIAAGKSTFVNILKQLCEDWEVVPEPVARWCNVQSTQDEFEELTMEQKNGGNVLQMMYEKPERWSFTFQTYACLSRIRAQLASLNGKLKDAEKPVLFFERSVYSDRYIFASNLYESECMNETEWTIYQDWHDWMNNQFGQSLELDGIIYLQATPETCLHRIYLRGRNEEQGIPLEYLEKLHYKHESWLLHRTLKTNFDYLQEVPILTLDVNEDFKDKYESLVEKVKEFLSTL

Row | Structure (SMILES) | ENZYMATIC ASSAY (Activation/Inhibition) (dCK-C3S-S74E [1]) | IC50 (dCK-C3S-S74E [2]; [dCK] = 100 nM) | IC50 (CCRF-CEM cell line; [4]) | THERMAL SHIFT ASSAY +Tm (°) (dCK-C3S-S74E [3]) | IC50 (dCK-C3S-S74E [2]; [dCK] = 50 nM (footnote A)) | IC50 (CCRF-CEM cell line; [5]) | ΔTm (º) (TSA) (dCK-C3S-S74E [3])
1 | CCCN(c1nc(-c2nccc(N)n2)cs1)c1cc(NC(=O)c2ccc(CN3CCN(C)CC3)cc2)ccc1C [OR0105] | I | 2140 ± 49 nM | 1620 ± 254 nM | 14.5 ± 0.2 ° | – | – | –
2 | Cc1ccc(NC(=O)c2ccc(CCN3CCN(C)CC3)cc2)cc1Nc1nc(-c2nccc(N)n2)cs1 [OR0146] | A/I | 3460 ± 349 nM | 14600 ± 1190 nM | 14.8 ± 0.4 ° | – | – | –
3 | Cc1ccc(C#Cc2ccc(CN3CCN(C)CC3)cc2)cc1Nc1nc(-c2nccc(N)n2)cs1 [OR0153] | A/I | 2040 ± 684 nM | 2180 ± 388 nM | 16.9 ± 0.4 ° | – | – | –
4 | Cc1ccc(NC(=O)c2ccc(CN(C)C)cc2)cc1Nc1nc(-c2nccc(N)n2)cs1 [OR0155] | A/I | 7780 ± 2330 nM | 13800 ± 394 nM | 10.9 ± 0.4 ° | – | – | –
5 | Cc1ccc(NC(=O)c2ccc(CN3CC4(CN(C)C4)C3)cc2)cc1Nc1nc(-c2nccc(N)n2)cs1 [OR0156] | A/I | 6380 ± 2080 nM | > 40000 nM | 12.6 ± 0.1 ° | – | – | –
6 | Cc1ccc(OCc2ccc(CN3CCN(C)CC3)cc2)cc1Nc1nc(-c2nccc(N)n2)cs1 [OR0232] | A/I | 1940 ± 529 nM | 3460 ± 638 nM | 15.2 ± 0.0 ° | – | – | –
7 | Cc1ccc(C#Cc2ccc(CN(C)C)cc2)cc1Nc1nc(-c2nccc(N)n2)cs1 [OR0237] | A/I | 2140 ± 387 nM | 3340 ± 1450 nM | 15.3 ± 0.5 ° | – | – | –
8 | Cc1ccc(NC(=O)c2ccc(CN3CCN(C)CC3)cc2)cc1Nc1nc(-c2ncc(F)c(N)n2)cs1 [OR0239] | A/I | 3350 ± 1070 nM | 14800 ± 1580 nM | 14.3 ± 0.4 ° | – | – | –
9 | Cc1ccc(NC(=O)c2ccc(CN3CCN(C)CC3)s2)cc1Nc1nc(-c2nccc(N)n2)cs1 [OR0241] | A/I | 3770 ± 2190 nM | 14200 ± 1160 nM | 13.5 ± 0.0 ° | – | – | –
10 | CN1CCN(Cc2ccc(C(=O)Nc3ccc4c(c3)N(c3nc(-c5nccc(N)n5)cs3)CCCC4)cc2)CC1 [OR0289] | A/I | 3400 ± 564 nM | 3920 ± 461 nM | 15.9 ± 0.5 ° | – | – | –
11 | Cc1ccc(-c2ccc(O)cc2)cc1Nc1nc(-c2nccc(N)n2)cs1 [OR0320] | A/I | 1760 ± 385 nM | 6770 ± 2810 nM | 15.0 ± 0.2 ° | – | – | –
12 | COc1cc(-c2ccc(C)c(Nc3nc(-c4nccc(N)n4)cs3)c2)ccc1O [OR0321] | A/I | 2270 ± 293 nM | 8290 ± 2710 nM | 13.3 ± 0.2 ° | – | – | –
13 | Cc1ccc(-c2ccc(CCCN3CCN(C)CC3)cc2)cc1Nc1nc(-c2nccc(N)n2)cs1 [OR0331] | A/I | 401 ± 28 nM | 918 ± 107 nM | 19.4 ± 0.4 ° | – | – | –
14 | CCCN(c1nc(-c2nccc(N)n2)cs1)c1cc(-c2ccc(OCCN3CCN(C)CC3)cc2)ccc1C [OR0596] | I | 286 ± 145 nM | 307 ± 50 nM | 18.9 ± 0.1 ° | – | – | –
15 | CCCN(c1nc(-c2nccc(N)n2)cs1)c1cc(-c2ccc(CCCN3CCN(C)CC3)cc2)ccc1C [OR0598] | I | 301 ± 78 nM | 776 ± 206 nM | 19.1 ± 0.2 ° | – | – | –
16 | CCCN(c1nc(-c2nccc(N)n2)cs1)c1cc(-c2ccc(CCN3CCN(C)CC3)nc2)ccc1C [OR0599] | I | 211 ± 52 nM | 136 ± 53 nM | 17.1 ± 0.2 ° | – | – | –
17 | CCCN(c1nc(-c2nc(N)cc(N)n2)cs1)c1cc(-c2ccc(CCCN3CCN(C)CC3)cc2)ccc1C [OR0601] | I | 137 ± 3 nM | 420 ± 83 nM | 20.8 ± 0.7 ° | – | – | –
18 | Cc1ccc(-c2ccc(CCN3CCN(C)CC3)cc2)cc1N(CC(C)C)c1nc(-c2nc(N)cc(N)n2)cs1 [OR0603] | I | – | 255 ± 70 nM | 21.3 ± 0.8 ° | 149 ± 44 nM | – | –
19 | Cc1ccc(-c2ccc(OCCN3CCN(C)CC3)nc2)cc1N(CC(C)C)c1nc(-c2nc(N)cc(N)n2)cs1 [OR0608] | I | – | – | 21.0 ± 0.5 ° | 106 ± 23 nM | 40 nM | 21.03 º
20 | Cc1ccc(-c2ccc(CCN3CCN(C)CC3)cc2)cc1N(CCCN)c1nc(-c2nc(N)cc(N)n2)cs1 [OR0611] | A/I | – | – | 14.7 ± 0.5 ° | 498 ± 119 nM | 11800 nM | 14.67 º
21 | CCCN(c1nc(-c2nc(N)cc(N)n2)cs1)c1cc(-c2cnc(N)nc2)ccc1C [OR0613] | I | – | – | 14.5 ± 0.7 ° | – | 703 nM | 14.5 º
